Structures can show the parent of a compound that is named as a salt.
How the values were obtained:
[1] = test system: neural afferent output of the cochlea; assay: Compound action potential (CAP) thresholds during cochlear perfusion, ambient noise levels; assay type: in vivo, Wistar rats; conditions: RWM perfusion; data not shown
Source text: (§1) As a foundation for the noise studies and to determine the general effect of selective adenosine receptor agonists on the cochlea, auditory function was first evaluated in control animals using the summating potential (SP; measure of the inner hair cell receptor potential) and the compound action potential (CAP; measure of the neural afferent output). This was undertaken to determine the background influence of adenosine receptor activation in the normal cochlea as a platform for the studies in noise-exposed animals.
Animals were anaesthetized (sodium pentobarbital; 60 mg/kg i.p.) and placed on a thermostatically regulated blanket connected to a remote homeothermal control unit (Harvard Apparatus, Holliston, Mass., USA) to maintain stable body temperature (37.5° C.) via a rectal thermocouple probe (Harvard Apparatus). The head of the animal was placed on a heated (38° C. surface temperature) stereotaxic head-holder, connected to a heat block temperature controller (Bio-Medical Engineering Services, University of Auckland, New Zealand). […] Sound-evoked cochlear responses (CAP and SP) to pure tone stimuli (4-28 kHz) were recorded from a silver wire electrode placed onto the cochlear round window. These responses were measured using a Tucker-Davis System II for the presentation of tone stimuli and acquisition of the electrical potentials via a Grass P16 Pre-amplifier.

[2] = test system: inner hair cell receptor potential; assay: Summating potential (SP) thresholds during cochlear perfusion, ambient noise levels; assay type: in vivo, Wistar rats; conditions: for effect on SP thresholds: RWM perfusion 90 minutes, adenosine 10 mM, CCPA 1 mM, rats at ambient noise
Procedure: SP thresholds, representing the inner hair cell receptor potential, were measured at frequencies ranging from 4-26 kHz prior to perfusion of artificial perilymph (AP; baseline), after AP perfusion and after perfusion with adenosine receptor agonists adenosine and CCPA. Data presented as mean±SEM (n=8). *p<0.05 **p<0.01, one way ANOVA with Tukey's multiple comparison test. AP, artificial perilymph (control); adenosine (10 mM), non-selective adenosine receptor agonist; CCPA (1 mM), selective A1 adenosine receptor agonist; CGS-21680 (0.2 mM), selective A2A receptor agonist; SCH-58261, selective A2A receptor antagonist.
as §1
Animals were anaesthetized (sodium pentobarbital; 60 mg/kg i.p.) and placed on a thermostatically regulated blanket connected to a remote homeothermal control unit (Harvard Apparatus, Holliston, Mass., USA) to maintain stable body temperature (37.5° C.) via a rectal thermocouple probe (Harvard Apparatus). The head of the animal was placed on a heated (38° C. surface temperature) stereotaxic head-holder, connected to a heat block temperature controller (Bio-Medical Engineering Services, University of Auckland, New Zealand). The animals were artificially ventilated and the auditory bulla was exposed using a ventrolateral approach. The perfusion line was inserted close to the round window membrane (RWM). The RWM was perfused with test solutions containing A1, or A2A adenosine receptor agonists at […] using a Harvard Apparatus Series PHD 22/2000 syringe pump. Adenosine receptor agonists adenosine (10 mM), CCPA (1 mM), CGS-21680 (200 μM), alone or in combination with adenosine receptor antagonist SCH-58261 (200 μM), were perfused for 90 minutes. Sound-evoked cochlear responses (CAP and SP) to pure tone stimuli (4-28 kHz) were recorded from a silver wire electrode placed onto the cochlear round window. These responses were measured using a Tucker-Davis System II for the presentation of tone stimuli and acquisition of the electrical potentials via a Grass P16 Pre-amplifier.

[3] = test system: nitrotyrosine immunoreactivity in the noise-exposed cochlea; assay: Nitrotyrosine immunohistochemistry, semi-quantitative, noise-exposed cochleae treated topically (Experiment 3); assay type: in vivo, Wistar rats; conditions: middle turn, adenosine 10 mM or CCPA 1 mM onto RWM, p<0.01
Source text: No immunostaining was detected when the nitrotyrosine antibody was omitted. (B). Semi-quantitative analysis of nitrotyrosine immunoreactivity. Abbreviations: cc, Claudius cells; dc, Deiters' cells; hc, Hensen's cells; idc, interdental cells; is, inner sulcus cells; ihc, inner hair cells; ohc, outer hair cells; opc, outer pillar cells. Scale bars: 50 μm. Data are expressed as means±SEM (n=4 animals per group). **p<0.01; ***p<0.001; one way ANOVA with Tukey's multiple comparison test.
Nitrotyrosine formation in the noise-exposed cochlea was assessed by immunohistochemistry. […] Immunoperoxidase reaction was detected using a secondary biotin-conjugated goat anti-rabbit IgG, followed by reaction visualisation using an avidin-biotin-peroxidase complex (ABC kit, Vector Laboratories) and diaminobenzidine (DAB kit, Vector). […] Images were analyzed using identical acquisition parameters and immunolabeling was semi-quantified using ImageJ software (v.1.38x, NIH, USA). […] Regions of interest were selected and their immunostaining intensity histograms obtained and expressed as mean pixel intensity after greyscale conversion. Between 15 and 32 images of the middle cochlear turn were analyzed in each group (n=4 animals per group) in a double-blind manner.

[4] = test system: rats exposed to broad band noise for 24 hours at 110 dBSPL; assay: ABR after broad band noise, adenosine receptor agonists delivered onto the round window membrane (Experiment 3); assay type: in vivo, Wistar rats; conditions: for post-treatment ABR thresholds for clicks and pure tones: 48 hours after administration to the RWM, CGS-21680 200 μM; for post-treatment ABR thresholds for clicks and pure tones / ABR threshold recovery for clicks: adenosine 10 mM; for post-treatment ABR thresholds for clicks and pure tones / ABR threshold recovery for pure tones (up to) / ABR threshold recovery for clicks: CCPA 1 mM; for ABR threshold recovery for pure tones (up to) / ABR threshold recovery for clicks: single dose onto RWM 6 hours after noise, ABR 48 hours after treatment; for ABR threshold recovery for pure tones (up to): adenosine 10 mM (16 kHz)
Procedure: ABRs were measured in response to auditory clicks (a) and pure tones (b-e) before noise exposure (baseline), 30 minutes after noise exposure (pre-treatment) and 48 hours after administration of adenosine receptor agonists (post-treatment). All drugs were delivered onto the cochlear round window membrane (f) Threshold recovery is defined as ABR post-treatment minus ABR pre-treatment. Data are expressed as means±SEM (n=8). *p<0.05; **p<0.01; ***p<0.001; one way ANOVA with Tukey's multiple comparison test. AP, artificial perilymph (control); adenosine (10 mM), non-selective adenosine receptor agonist; CCPA (1 mM), selective A1 adenosine receptor agonist; CGS-21680 (0.2 mM), selective A2A receptor agonist.
Rats were exposed to a broadband noise presented for 24 hours at 90, 100, or 110 dBSPL. Noise exposures were carried out in a custom-built acoustic chamber (Shelburg Acoustics, Sydney, Australia) with internal speakers and external controls (sound generator and frequency selector). The sound levels in the cage were measured using a calibrated Rion NL-49 sound level meter to ensure minimal deviations of sound intensity. The animals had free access to food and water during the exposure.
Auditory thresholds in noise-exposed animals were measured using auditory brainstem responses (ABR), which represent the sound evoked potentials from the auditory nerve and brainstem auditory nuclei. ABR measurements were recorded at least 24 hours prior to noise exposure (baseline) and then 30 min after noise exposure (pre-treatment). Adenosine receptor agonists or vehicle control were then delivered to the cochlear round window (around 6 hours post-noise) and ABR measurement was then repeated 48 hours after drug administration (post-treatment). ABR measurements were performed in a sound attenuator chamber (Shelburg Acoustics, Sydney, Australia). The rats were anesthetized with ketamine (75 mg/kg) and xylazine (10 mg/kg) and their body temperature was maintained at 38° C. with a heating pad as described. ABRs were obtained by placing fine platinum electrodes subdermally at the mastoid region of the ear of interest (active electrode), scalp vertex (reference) and mastoid region of the opposite ear (ground electrode). A series of auditory clicks or pure tones (4-28 kHz) presented at varying intensity and thresholds generated electrical activity reflecting differing levels of auditory processing. The sound threshold of the ABR complex (waves I-IV) were determined by progressively attenuating the sound intensity until the waveform was no longer observed. The acoustic stimuli for ABR were produced, and the responses, recorded, using a Tucker-Davis Technologies auditory physiology workstation (Alachua, Fla., USA) controlled by computer-based digital signal processing package and software (BioSig, Alachua, Fla., USA). ABR potentials were evoked with digitally produced 5 ms tone pips (0.5 ms rise-fall time) at frequencies between 4 and 28 kHz in half-octave steps. Sound pressure level (SPL) was raised in 5 dB steps starting from 10 dB below threshold level to 90 dB SPL. Responses were averaged at each sound level (1024 repeats with stimulus polarity alternated), and response waveforms were discarded when peak-to-peak amplitude exceeded 15 μV (artefact reject). The ABR threshold was defined as the lowest intensity (to the nearest 5 dB) at which a response could be visually detected above the noise floor. The animals were euthanised after hearing assessment and the cochleae collected for immunohistochemical assessment of free radical damage.
Six hours after exposure to broad band noise (110 dBSPL for 24 hours), adenosine receptor agonists were delivered to the round window membrane (RWM) in the left cochlea, whilst the contralateral ear served as untreated control. […]

[5] = test system: noise-exposed cochlea; conditions: pre-treatment (prophylactic), reference [6], cited from earlier work

Row | SMILES | effect on SP thresholds [2] | reduction of nitrotyrosine mean pixel intensity compared to AP control [3] | post-treatment ABR thresholds for clicks and pure tones [4] | ABR threshold recovery for pure tones (up to) [4] | ABR threshold recovery for clicks [4] [dB] | other results
1 | Nc1ncnc2c1ncn2[C@@H]1O[C@H](CO)[C@@H](O)[C@H]1O [adenosine] | did not affect SP thresholds | 30-42% | markedly improved ABR thresholds | up to 19 dB | 18 | effect on CAP thresholds [1]: not altered
2 | Nc1nc2c(cnn2CCc2ccccc2)c2nc(-c3ccco3)nn12 [SCH-58261, 7-(2-phenylethyl)-5-amino-2-(2-furyl)-pyrazolo-[4,3-e]-1,2,4-triazolo[1,5-c]pyrimidine] |  |  |  |  |  | effect on the CGS-21680 reduction of SP thresholds ([2]; SCH-58261 200 μM in combination with CGS-21680): inhibited
3 | CCNC(=O)[C@H]1O[C@@H](n2cnc3c(N)nc(NCCc4ccc(CCC(=O)O)cc4)nc32)[C@H](O)[C@@H]1O [CGS-21680, 2-p-(2-Carboxyethyl)phenethylamino-5′-N-ethylcarboxamidoadenosine hydrochloride hydrate] |  |  | remained unchanged |  |  | reduction of SP thresholds ([2]; at 16 kHz, CGS-21680 200 μM RWM perfusion, p<0.01): 5 dB; threshold recovery ([4]; CGS-21680 200 μM onto RWM 6 hours after noise, FIG. 11(f)): did not affect threshold recovery
4 | C[C@H](Cc1ccccc1)Nc1ncnc2c1ncn2[C@@H]1O[C@H](CO)[C@@H](O)[C@H]1O [R-PIA, R—N6-phenylisopropyladenosine] |  |  |  |  |  | survival of the outer hair cells [5]: increased survival of the outer hair cells; preservation of auditory thresholds ([5]; topical to RWM): better preservation of auditory thresholds
5 | OC[C@H]1O[C@@H](n2cnc3c(NC4CCCC4)nc(Cl)nc32)[C@H](O)[C@@H]1O [CCPA, 2-Chloro-N^6-cyclopentyladenosine] | did not affect SP thresholds | 22-45% | markedly improved ABR thresholds | up to 20 dB | 20 | 
